Data from patent US20230085307A1, “PYRIDAZINONE COMPOUND AND HERBICIDE” (NISSAN CHEMICAL CORPORATION, priority 2019, published 2023).

Legend:
green foxtail = test: Test Example 4: herbicidal effect by soil treatment (Table 19, symbol G); type: in vivo, green foxtail (Setaria viridis); conditions: amount of applied herbicide 320 g/ha
Summary of the method: (§1)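 Three weeks of greenhouse growth at 25° C. to 30° C. followed a uniform surface spray of water-diluted emulsion at a predetermined herbicide amount. Seeds had been sown beforehand under about 1.5 cm of sterilized diluvial soil. Grading followed criteria set out in an earlier test.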

velvetleaf = test: Test Example 4: herbicidal effect by soil treatment (Table 19, symbol M); type: in vivo, velvetleaf (Abutilon theophrasti); conditions: amount of applied herbicide 320 g/ha
Summary of the method: as §1

chickweed = test: Test Example 4: herbicidal effect by soil treatment (Table 19, symbol P); type: in vivo, common chickweed (Stellaria media); conditions: amount of applied herbicide 320 g/ha
Summary of the method: as §1

southern crabgrass = test: Test Example 5: herbicidal effect by foliage application, plastic box (Table 20, symbol F); type: in vivo, southern crabgrass (Digitaria ciliaris); conditions: foliage application, AAH 320 g/ha, evaluated three weeks after application
Summary of the method: (§2)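 Plants sown in sterilized diluvial soil and grown 14 days in a greenhouse at 25° C to 30° C, then sprayed on the foliage with the compound's emulsion diluted in water to a predetermined herbicide amount. Injury to weeds and crops scored three weeks after application on a visual rating scale.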

persian speedwell [1] = test: Test Example 5: herbicidal effect by foliage application, plastic box (Table 20, symbol R); type: in vivo, Persian speedwell (Veronica persica); conditions: foliage application, AAH 320 g/ha, evaluated three weeks after application
Summary of the method: as §2

barnyard grass [2] = test: Test Example 3: herbicidal effect by foliage application, Wagner pot (Table 18, symbol H); type: in vivo, barnyard grass (Echinochloa crus-galli); conditions: amount of applied herbicide 320 g/ha
Summary of the method: (§3)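 Plants were sown in alluvial soil held under 0.1–0.5 cm standing water and grown 14 days in a greenhouse at 25–30 °C. An emulsifiable formulation, water-diluted to the set dose, was then sprayed onto the foliage, and effects were scored three weeks later using previously defined criteria.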

oval-leafed pondweed = test: Test Example 1: herbicidal activity, application before weed generation under submerged conditions (Table 16, symbol C); type: in vivo, oval-leafed pondweed (Monochoria vaginalis); conditions: 320 g/ha applied herbicide
Summary of the method: (§4)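 Emulsion formulation, water-diluted to set dose, was put onto the flooded surface (4 cm depth, alluvial soil) the same day weeds were sown and 2.5-leaf rice transplanted. After 3 weeks at 25-30 °C under glass, each species was rated 0 (≤5% kill) to 5 (≥90% kill).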

wild oat = test: Test Example 5: herbicidal effect by foliage application, plastic box (Table 20, symbol I); type: in vivo, wild oat (Avena fatua); conditions: foliage application, AAH 320 g/ha, evaluated three weeks after application
Summary of the method: as §2

barnyard grass [3] = test: Test Example 4: herbicidal effect by soil treatment (Table 19, symbol H); type: in vivo, barnyard grass (Echinochloa crus-galli); conditions: amount of applied herbicide 320 g/ha
Summary of the method: as §1

late watergrass = test: Test Example 1: herbicidal activity, application before weed generation under submerged conditions (Table 16, symbol A); type: in vivo, late watergrass (Echinochloa oryzicola); conditions: 320 g/ha applied herbicide
Summary of the method: as §4

persian speedwell [4] = test: Test Example 4: herbicidal effect by soil treatment (Table 19, symbol R); type: in vivo, Persian speedwell (Veronica persica); conditions: amount of applied herbicide 320 g/ha
Summary of the method: as §1

redroot pigweed = test: Test Example 4: herbicidal effect by soil treatment (Table 19, symbol N); type: in vivo, redroot pigweed (Amaranthus retroflexus); conditions: amount of applied herbicide 320 g/ha
Summary of the method: as §1

Japanese bulrush = test: Test Example 2: herbicidal activity, application during weed generation under submerged conditions (Table 17, symbol B); type: in vivo, Japanese bulrush (Schoenoplectus juncoides); conditions: AAH 320 g/ha; application during weed generation, submerged conditions
Summary of the method: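 Wagner pot, alluvial soil, 4 cm flood; mixed sowing of all species; greenhouse 25° C.–30° C. Emulsifiable formulation, water-diluted to predetermined dose, applied to paddy water at 1–2 leaf stage. Effect rated at 3 wk using the earlier test's scoring criteria.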

rice flat sedge = test: Test Example 3: herbicidal effect by foliage application, Wagner pot (Table 18, symbol E); type: in vivo, rice flat sedge (Cyperus iria); conditions: amount of applied herbicide 320 g/ha
Summary of the method: as §3

blackgrass = test: Test Example 5: herbicidal effect by foliage application, plastic box (Table 20, symbol J); type: in vivo, blackgrass (Alopecurus myosuroides); conditions: foliage application, AAH 320 g/ha, evaluated three weeks after application
Summary of the method: as §2

barnyard grass [5] = test: Test Example 5: herbicidal effect by foliage application, plastic box (Table 20, symbol H); type: in vivo, barnyard grass (Echinochloa crus-galli); conditions: foliage application, AAH 320 g/ha, evaluated three weeks after application
Summary of the method: as §2

Compound	herbicidal effect on G: green foxtail (green foxtail)	herbicidal effect on M: velvetleaf (velvetleaf)	herbicidal effect on P: chickweed (chickweed)	F: southern crabgrass, herbicidal effect (criteria 0-5) (southern crabgrass)	R: persian speedwell, herbicidal effect (criteria 0-5) (persian speedwell [1])	herbicidal effect on H: barnyard grass (barnyard grass [2])	Herbicidal effect on C: oval-leafed pondweed (grade 0-5) (oval-leafed pondweed)	I: wild oat, herbicidal effect (criteria 0-5) (wild oat)	herbicidal effect on H: barnyard grass (barnyard grass [3])	Herbicidal effect on A: late watergrass (grade 0-5) (late watergrass)	herbicidal effect on R: persian speedwell (persian speedwell [4])	herbicidal effect on N: redroot pigweed (redroot pigweed)	herbicidal effect rating, B: Japanese bulrush (Japanese bulrush)	herbicidal effect on E: rice flat sedge (rice flat sedge)	J: blackgrass, herbicidal effect (criteria 0-5) (blackgrass)	H: barnyard grass, herbicidal effect (criteria 0-5) (barnyard grass [5])
Cc1nn(C)c(=O)c(-c2c(-c3ccc([S+]([O-])C(C)C)cc3)sc3ccc(F)cc23)c1O (centres unmarked) [2-257]	2 (Herbicidal rate of 20% or more and less than 40%)	3 (Herbicidal rate of 40% or more and less than 70%)	4 (Herbicidal rate of 70% or more and less than 90%)	3 (Herbicidal rate of 40% or more and less than 70%)	5 (Herbicidal rate of 90% or more (almost completely withered))	5 (Herbicidal rate of 90% or more (almost completely withered))	2 (Herbicidal rate of 20% or more and less than 40%)	5 (Herbicidal rate of 90% or more (almost completely withered))	4 (Herbicidal rate of 70% or more and less than 90%)	1 (Herbicidal rate of 5% or more and less than 20%)	5 (Herbicidal rate of 90% or more (almost completely withered))	5 (Herbicidal rate of 90% or more (almost completely withered))	0 (Herbicidal rate of 5% or less (almost no effect))	5 (Herbicidal rate of 90% or more (almost completely withered))	4 (Herbicidal rate of 70% or more and less than 90%)	5 (Herbicidal rate of 90% or more (almost completely withered))
Cc1nn(C)c(=O)c(-c2c(-c3ccc(S(C)(=O)=O)cc3)sc3ccc(F)cc23)c1O [2-258]	5 (Herbicidal rate of 90% or more (almost completely withered))	3 (Herbicidal rate of 40% or more and less than 70%)	4 (Herbicidal rate of 70% or more and less than 90%)	5 (Herbicidal rate of 90% or more (almost completely withered))	5 (Herbicidal rate of 90% or more (almost completely withered))	5 (Herbicidal rate of 90% or more (almost completely withered))	0 (Herbicidal rate of 5% or less (almost no effect))	5 (Herbicidal rate of 90% or more (almost completely withered))	5 (Herbicidal rate of 90% or more (almost completely withered))	5 (Herbicidal rate of 90% or more (almost completely withered))	5 (Herbicidal rate of 90% or more (almost completely withered))	4 (Herbicidal rate of 70% or more and less than 90%)	0 (Herbicidal rate of 5% or less (almost no effect))	5 (Herbicidal rate of 90% or more (almost completely withered))	5 (Herbicidal rate of 90% or more (almost completely withered))	5 (Herbicidal rate of 90% or more (almost completely withered))
COCC(=O)Oc1c(C)nn(C)c(=O)c1-c1c(-c2ccc(OC(F)F)cc2)sc2ccc(F)cc12 [2-283]	5 (Herbicidal rate of 90% or more (almost completely withered))	5 (Herbicidal rate of 90% or more (almost completely withered))	4 (Herbicidal rate of 70% or more and less than 90%)	5 (Herbicidal rate of 90% or more (almost completely withered))	5 (Herbicidal rate of 90% or more (almost completely withered))	5 (Herbicidal rate of 90% or more (almost completely withered))	3 (Herbicidal rate of 40% or more and less than 70%)	3 (Herbicidal rate of 40% or more and less than 70%)	5 (Herbicidal rate of 90% or more (almost completely withered))	3 (Herbicidal rate of 40% or more and less than 70%)	5 (Herbicidal rate of 90% or more (almost completely withered))	5 (Herbicidal rate of 90% or more (almost completely withered))	3 (Herbicidal rate of 40% or more and less than 70%)	5 (Herbicidal rate of 90% or more (almost completely withered))	4 (Herbicidal rate of 70% or more and less than 90%)	5 (Herbicidal rate of 90% or more (almost completely withered))
Cc1nn(C)c(=O)c(-c2c(-c3ccc(OC(F)F)cc3)sc3ccc(F)cc23)c1OC(=O)c1ccc(Cl)cc1 [2-286]	3 (Herbicidal rate of 40% or more and less than 70%)	0 (Herbicidal rate of 5% or less (almost no effect))	0 (Herbicidal rate of 5% or less (almost no effect))	2 (Herbicidal rate of 20% or more and less than 40%)	5 (Herbicidal rate of 90% or more (almost completely withered))	5 (Herbicidal rate of 90% or more (almost completely withered))	1 (Herbicidal rate of 5% or more and less than 20%)	1 (Herbicidal rate of 5% or more and less than 20%)	1 (Herbicidal rate of 5% or more and less than 20%)	5 (Herbicidal rate of 90% or more (almost completely withered))	3 (Herbicidal rate of 40% or more and less than 70%)	4 (Herbicidal rate of 70% or more and less than 90%)	3 (Herbicidal rate of 40% or more and less than 70%)	4 (Herbicidal rate of 70% or more and less than 90%)	4 (Herbicidal rate of 70% or more and less than 90%)	5 (Herbicidal rate of 90% or more (almost completely withered))
Cc1nn(C)c(=O)c(-c2c(-c3ccc(OC(F)F)cc3)sc3ccc(F)cc23)c1OC(=O)c1ccco1 [2-287]	5 (Herbicidal rate of 90% or more (almost completely withered))	5 (Herbicidal rate of 90% or more (almost completely withered))	4 (Herbicidal rate of 70% or more and less than 90%)	5 (Herbicidal rate of 90% or more (almost completely withered))	5 (Herbicidal rate of 90% or more (almost completely withered))	5 (Herbicidal rate of 90% or more (almost completely withered))	4 (Herbicidal rate of 70% or more and less than 90%)	3 (Herbicidal rate of 40% or more and less than 70%)	5 (Herbicidal rate of 90% or more (almost completely withered))	5 (Herbicidal rate of 90% or more (almost completely withered))	5 (Herbicidal rate of 90% or more (almost completely withered))	5 (Herbicidal rate of 90% or more (almost completely withered))	3 (Herbicidal rate of 40% or more and less than 70%)	5 (Herbicidal rate of 90% or more (almost completely withered))	5 (Herbicidal rate of 90% or more (almost completely withered))	5 (Herbicidal rate of 90% or more (almost completely withered))
